Two compounds from patent US20260034088A1, “SULFOPROPANOIC ACID DERIVATIVES FOR TREATING NEURODEGENERATIVE DISORDERS” (Alzheon, Inc., priority 2018, published 2026) can be followed below.

A short description of data set [1]: Brain penetration of oral 3-SPA in male SD rats (brain, CSF, plasma). The format is in vivo, Sprague-Dawley rats. Conditions: oral 30 mg/kg. On the procedure:
A separate group of animals was dosed orally at 30 mg/kg and terminal brain, CSF and plasma samples were collected at 1, 2, 6, and 24 hr (3 animals for each time point) for bioanalyses of 3-SPA in brain and CSF, and to estimate brain penetration relative to plasma concentrations. The in-life study was performed at Agilux Laboratories (Worcester, MA) following quality standards in line with Good Laboratory Practice. Bioanalyses of rat plasma, CSF and brain was preformed using LC-MS/MS at Nextcea. Prior to processing rat brains for bioanalysis, the brains were perfused to remove pooled blood. Pharmacokinetic data analyses were conducted using Winnonlin Professional v5.0.1 (Pharsight, Mountain View, CA).
The plasma concentration of a single dose of 3-SPA, dissolved in saline as a clear solution, administered orally and intravenously to rats at a dose level of 30 mg/kg and 10 mg/kg, respectively, are shown in FIG. 9. Brain, CSF and corresponding plasma levels after a single oral dose of dose of 30 mg/kg of 3-SPA at 1, 2, 6, and 24 hr are shown in FIG. 10. Mean PK curves were used for calculation of pharmacokinetic parameters.

Data set [2] concerns the target T1, recombinant human Aβ42 peptide (Homo sapiens, UniProt P05067).
T1 construct: recombinant human Aβ42 peptide; purchased BioLegend 843801
In words: Ion mobility mass spectrometry (IMS MS) anti-Aβ42 oligomer activity. The class given is biochemical. As to conditions: for inhibition of formation of Aβ42 oligomers: after 24 hours in vitro. On the procedure: The conditions used for mass spectrometry, using a Waters Synapt G2-S, were as follows: positive polarity in sensitivity mode, capillary=2.5 kV, nebulizer=2 mbar, source temperature=80° C., desolvation temperature=60° C., sample cone setting=35 V, source offset setting=60 V, and mass range=500 to 4000 m/z. These conditions were maintained throughout the study to ensure consistency of the data and to avoid influencing the detection of oligomers due to preferential ionization conditions.
Samples were directly infused into the mass spectrometer at a flow rate of 10 μL/min using a Protea PM-1000 Syringe Pump and Hamilton 1 mL Syringe. The data acquisition of the amyloid peptide was performed using a Waters Synapt G2-S quadrupole time of flight mass spectrometer (Q-TOF MS) with traveling wave ion mobility (Waters Corp., Milford, MA). The data were acquired using the systems sensitivity mode to allow for the detection of the less abundant oligomers. Samples were infused at room temperature. The IMS MS studies were conducted at Protea, Inc. (Morgantown, WV).
1 mg of recombinant human Aβ42 peptide from BioLegend (99% purity, cat #843801) was reconstituted in 200 μL of Fisher Optima LC/MS grade water (cat #W6-1) and vortexed vigorously for 2 minutes to solubilize the peptide creating a 5 mg/mL solution. Samples were then diluted to a final concentration of 22 pmol/μL prior to incubation. The sample mixtures were then incubated at room temperature for 0, 4 and 24 hours. After the acquisition of incubated samples was completed, the raw data were analyzed using the Waters MassLynx v2.4 suite with DriftScover v2.7 to visualize drift times for the peptide.
Aβ42 species characterization using IMS MS was performed by direct infusion at 22 pmol/μL in water. The peptide was prepared in water to maintain the native state conformation of the peptide and ion mobility data acquisition was performed to detect and characterize the conformational changes of the native state monomer and any oligomers that may have formed during the incubation.
The data acquisition for Aβ42 peptide was performed using a Waters Synapt G2-S quadrupole time of flight mass spectrometer (Q-TOF MS) with traveling wave ion mobility (Waters Corp., Milford, MA). The data were acquired using the systems sensitivity mode to allow for the detection of the less abundant oligomers. Samples were infused at room temperature as above.
1 mg of 3-SPA was reconstituted in 1 mL of Fisher Optima LC/MS grade water (cat #W6-1) and vortexed vigorously for 2 minutes until completely dissolved. The sample was then diluted to create 220 pmol/μL, and […] solutions to perform a 100-fold, and 1,000-fold molar excess for the binding experiments with Aβ42 peptide. […]

Several values for one entry are separate records, joined by “and”; a condition that tells them apart may be missing. Equal values may be shown once.

T1 sequence (P05067 672-713 limits assumed): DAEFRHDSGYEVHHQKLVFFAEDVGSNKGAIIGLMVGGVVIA

Turning to `O=C(O)CCS(=O)(=O)O` [Compound 3-SPA, 3-sulfopropanoic acid], the “Brain/Plasma (AUC %)” value in data set [1] was 25% and 25.3%. Besides, the “Aβ42 oligomer species detected (not inhibited)” value was “dimers, trimers and pentamers” in data set [2] (4 hr incubation, Aβ42:compound 1:1000); “Only pentamers were detected” in data set [2] (24 hours incubation, 1,000-fold excess of compound). In data set [2], the “inhibition of formation of Aβ42 oligomers” value is listed as “Near complete prevention of formation of Aβ42 oligomers except for pentamers”.

`NCCCS(=O)(=O)O` [Tramiprosate, 3-amino-1-propanesulfonic acid, reference compound]: the “inhibition of formation of Aβ42 oligomers” value in data set [2] is “complete inhibition”.
